Source: the supplement of paper PMC10307832

Experiments:
Assay in all cases: relative viability (nuclei count vs DMSO), 5 days (fraction); higher = more cells survive
[1] = compound: CC1=NN=C(O1)C2=NN=C(C=C2)N3CCC(CC3)OC4=C(C=CC(=C4)F)Cl + CC(=O)c1c(C)c2cnc(Nc3ccc(N4CCNCC4)cn3)nc2n(C2CCCC2)c1=O [Palbociclib] (partner 0.5 µM)
How it was run: (§1)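 Values are medians from duplicate plates. Each reflects relative viability, defined as the nuclei count of treated wells over that of vehicle wells. Lung cancer cell lines in 1536-well plates were pin-tool dosed one day after seeding with one drug alone or with a fixed anchor-drug dose plus five library-drug doses (not always all listed) in √10 steps, then fixed, stained and imaged at 4× after 5 days.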

[2] = compound: CC1=NN=C(O1)C2=NN=C(C=C2)N3CCC(CC3)OC4=C(C=CC(=C4)F)Cl + CCNC(=O)c1noc(-c2cc(C(C)C)c(O)cc2O)c1-c1ccc(CN2CCOCC2)cc1 [Luminespib] (partner 0.01 µM)
How it was run: as §1

[3] = compound: CC1=NN=C(O1)C2=NN=C(C=C2)N3CCC(CC3)OC4=C(C=CC(=C4)F)Cl + N=C(N)NC(=N)NCCc1ccccc1 [Phenformin] (partner 250 µM)
How it was run: as §1

Tosedostat + Lapatinib = compound: CC(C)C[C@@H](C(=O)N[C@H](C(=O)OC1CCCC1)c1ccccc1)[C@H](O)C(=O)NO [Tosedostat] + CS(=O)(=O)CCNCc1ccc(-c2ccc3ncnc(Nc4ccc(OCc5cccc(F)c5)c(Cl)c4)c3c2)o1 [Lapatinib] (partner 2 µM)
How it was run: as §1

| Cell Line | relative viability ([1]; first compound 0.253 µM) | relative viability ([1]; first compound 0.8 µM) | relative viability ([1]; first compound 2.53 µM) | relative viability ([1]; first compound 8 µM) | relative viability ([2]; first compound 0.253 µM) | relative viability ([2]; first compound 0.8 µM) | relative viability ([2]; first compound 2.53 µM) | relative viability ([2]; first compound 8 µM) | relative viability ([3]; first compound 0.253 µM) | relative viability ([3]; first compound 0.8 µM) | relative viability ([3]; first compound 2.53 µM) | relative viability ([3]; first compound 8 µM) | relative viability (Tosedostat + Lapatinib; first compound 0.02 µM) | relative viability (Tosedostat + Lapatinib; first compound 0.06325 µM) | relative viability (Tosedostat + Lapatinib; first compound 0.2 µM) | relative viability (Tosedostat + Lapatinib; first compound 0.6325 µM) | relative viability (Tosedostat + Lapatinib; first compound 2 µM) |
| --- | --- | --- | --- | --- | --- | --- | --- | --- | --- | --- | --- | --- | --- | --- | --- | --- | --- |
| NCI-H2342 | 0.478 | 0.491 | 0.458 | 0.417 | 0.501 | 0.528 | 0.484 | 0.476 | 0.474 | 0.503 | 0.492 | 0.362 |  |  |  |  |  |
| SK-MES-1 | 0.28 | 0.355 | 0.341 | 0.352 | 0.726 | 0.725 | 0.631 | 0.547 | 0.58 | 0.532 | 0.475 | 0.414 | 0.41 | 0.482 | 0.473 | 0.472 | 0.472 |
| NCI-H1355 | 0.25 | 0.359 | 0.353 | 0.353 | 0.538 | 0.582 | 0.601 | 0.623 | 0.405 | 0.37 | 0.446 | 0.411 | 1.02 | 1.03 | 0.88 | 0.913 | 0.915 |
| HCC-366 | 0.063 | 0.124 | 0.132 | 0.112 |  |  |  |  | 0.286 | 0.285 | 0.309 | 0.288 | 1.12 | 0.954 | 1 | 0.993 | 0.997 |
| 201T | 0.219 | 0.251 | 0.221 | 0.21 | 0.486 | 0.589 | 0.499 | 0.566 | 0.38 | 0.436 | 0.46 | 0.443 | 1.05 | 1.06 | 1.06 | 1.09 | 1.13 |
| HCC-827 | 0.317 | 0.283 | 0.355 | 0.3 | 0.428 | 0.228 | 0.349 | 0.339 | 0.388 | 0.258 | 0.354 | 0.36 | 0.185 | 0.196 | 0.203 | 0.189 | 0.159 |
| PC-14 | 0.503 | 0.444 | 0.449 | 0.44 | 0.163 |  | 0.22 | 0.142 | 0.656 |  | 0.463 | 0.567 | 0.273 | 0.32 | 0.348 | 0.269 | 0.371 |
| NCI-H2228 | 0.675 | 0.394 | 0.681 | 0.538 | 0.164 | 0.15 | 0.132 | 0.131 | 0.313 | 0.257 | 0.294 | 0.401 | 1.11 | 0.991 | 0.822 | 0.784 | 0.533 |
| NCI-H727 | 0.672 | 0.708 | 0.718 | 0.596 | 0.531 |  | 0.6 | 0.629 | 0.613 |  | 0.496 | 0.482 | 1.11 | 0.589 | 0.631 | 0.657 | 0.575 |
| NCI-H1650 | 0.253 | 0.334 | 0.3 | 0.292 |  | 0.194 | 0.217 | 0.205 |  | 0.403 | 0.445 | 0.453 | 0.983 | 0.828 | 0.863 | 0.997 | 0.918 |
| A-427 | 0.567 | 0.566 | 0.584 | 0.564 | 0.882 |  | 0.708 | 0.732 | 0.285 |  | 0.278 | 0.258 | 1.13 | 1.1 | 1.01 | 1.02 | 0.995 |
| NCI-H650 | 0.323 | 0.318 | 0.32 | 0.314 | 0.77 | 0.685 | 0.703 | 0.793 | 0.478 | 0.444 | 0.43 | 0.414 | 1.19 | 0.996 | 0.608 | 0.775 | 0.489 |
| NCI-H1792 | 0.358 | 0.502 | 0.449 | 0.474 | 0.34 | 0.38 | 0.419 | 0.431 | 0.294 | 0.416 | 0.264 | 0.384 | 0.988 | 1.04 | 0.878 | 0.863 | 0.823 |
| NCI-H2009 | 0.175 | 0.204 | 0.156 | 0.158 | 0.596 | 0.565 | 0.539 | 0.523 | 0.456 | 0.418 | 0.424 | 0.378 | 1.25 | 0.956 | 1.03 | 0.78 | 0.663 |
| Calu-6 |  |  |  |  |  |  |  |  |  |  |  |  | 1.33 | 1.04 | 0.951 | 0.899 | 0.864 |
| NCI-H1975 | 0.2 | 0.363 | 0.517 | 0.411 |  |  | 0.224 | 0.196 |  | 0.33 | 0.421 | 0.387 | 0.835 | 0.966 | 0.86 | 0.703 | 0.751 |
| LOU-NH91 |  | 0.535 | 0.478 | 0.632 | 0.317 | 0.318 | 0.307 | 0.315 | 0.64 | 0.598 | 0.69 | 0.679 | 0.8 | 0.88 | 0.875 | 0.868 | 0.778 |
| EMC-BAC-2 | 0.492 | 0.513 | 0.502 | 0.513 | 0.987 | 0.977 | 1.03 | 0.917 | 0.594 | 0.479 | 0.495 | 0.517 | 0.894 | 0.888 | 0.894 | 0.853 | 0.955 |
| LK-2 | 0.739 | 0.818 | 0.772 | 0.614 | 0.2 | 0.159 | 0.176 | 0.182 | 0.576 | 0.433 | 0.661 | 0.38 | 0.958 | 0.971 | 0.892 | 0.995 | 1.2 |
| NCI-H2405 | 0.319 | 0.349 | 0.332 | 0.346 | 0.558 | 0.434 | 0.534 | 0.612 | 0.406 | 0.383 | 0.37 | 0.328 | 1.43 | 1.06 | 0.999 | 1.02 | 0.847 |
